The values below are quoted from earlier work in patent US20230310317A1, “SOL-GEL COMPOSITION” (THE UNIVERSITY OF QUEENSLAND, priority 2020, published 2023).

For this series the following is noted: aqueous media e.g. gel-based systems.

Consider `C[C@@H]1C[C@H]2[C@@H]3CCC4=CC(=O)C=C[C@]4(C)[C@@]3(Cl)[C@@H](O)C[C@]2(C)[C@@]1(OC(=O)c1ccco1)C(=O)CCl` [MF, mometasone furoate], for which the “Solubility in aqueous media” value is given as “practically insoluble”.
